Assay results from article PMC11188489, “Pharmacokinetic assessment of tacrolimus in combination with deoxyschizandrin in rats” (Frontiers in Pharmacology, 2024).
Entries after “also recorded” stand apart in the source; their conditions may differ.

Assays:
[1] = Pharmacokinetics of deoxyschizandrin in rats after single and multiple administrations (UHPLC-MS/MS of plasma); assay type: in vivo, SD rats; details: for AUMC0→t / AUC(0-t) / AUC(0-inf) / Cmax / MRT / Tmax / half-life: rat plasma; for AUC(0-t) / AUC(0-inf) / Cmax / MRT / Tmax / half-life: male, SD, rat, plasma
Experimental: The mobile phase A was acetonitrile, and mobile phase B was 0.1% formic acid in water, and the initial mobile phase of gradient elution program was consisted of 60% phase A and 40% phase B. The sample injection volume was set at 10 μL. Gradient elution program was supplied in Supplementary Table S1.
The mass spectrometry detection was achieved on an Agilent 6460A mass spectrometer with ESI source. […] The settings of the mass spectrometer source were as follows: capillary voltage 4,000 V, sheath gas flow 12 L/min, temperature 400°C, dry gas (nitrogen) flow 10 L/min and temperature 350°C, nebulizer pressure 45 psi. All analytes were detected in positive ionization mode. Collision gas (high purity liquid nitrogen) was set at 0.25 MPa. The structures of both two analytes and IS are display in Figure 1.
The pretreatment was performed for the plasma sample by one-step protein precipitation, Briefly, 100 μL sample was transferred into a 1.5 mL EP tube prior to adding with 300 μL methanol(containing 200 ng/mL IS). The mixture was vortex-mixed for 30 s before centrifugation at 17,400 g for 10 min at room temperature, and 100 μL of the supernatant was diluted with 100 μL of acetonitrile (v/v, 1:1) Then, a 10 μL aliquoted of diluted solution was injected into the UHPLC-MS/MS system for analysis.
The protocol of the animal study was approved by the Experimental Animal Ethics Committee of the Shanghai University of Traditional Chinese Medicine. Specific Pathogen Free (SPF) grade SD rats, male, 8 weeks old, 200–250 g, were obtained from the animal experiment center of Shanghai University of Traditional Chinese Medicine. After passing quarantine, the rats were adaptive fed for 2 days. Rats were fasted for 12–14 h, followed by the initiation of pharmacokinetic study of Tac and deoxyschizandrin. This animal study was carried out in accordance with the National Institutes of Health Guide for the Care and Use of Laboratory animals.
(§1) In this study, 42 rats were divided equally into seven groups of six rats each, numbered NG2201-NG2207. Among them, the NG2201 and NG2202 group was dosed with 150 mg/kg deoxyschizandrin alone to study the PK of deoxyschizandrin in rats after single and multiple doses; the NG2203 group was administrate dosed with 1.0 mg/kg of Tac; the NG2204-NG2206 groups were dosed with 75, 150, and 300 mg/kg of deoxyschizandrin plus 1.0 mg/kg Tac, respectively, and the NG2207 group was dosed with the Wuzhi capsule (approximately equal to 150 mg/kg of deoxyschizandrin) plus 1.0 mg/kg of Tac ([Teng et al., 2022]). The detailed dosing regimen is shown in Table 2, and all dose in this experiment were calculated according to clinical dose. Blood samples (approximately 300 μL for each) for PK analysis were collected into lithium–heparin tubes. The plasma sampling schedules are outlined below: Blood samples were drawn pre-dose, at 5, 10, 20 and 30 min, and at 1, 1.5, 2, 4, 8 and 24 h after drug administration. The blood samples were centrifuged at 5,000 g for 15 min at 4°C to collect plasma samples, which were placed −80 refrigerator.
The rat plasma collected from each group was pretreated according to the method in section 2.5, and exposure levels of Tac and deoxyschizandrin were determined using the above established UHPLC-MS/MS method and the PKs were calculated using DAS software using non-compartment model (version 2.0, China Pharmacological Society). The data were presented as mean ± SD.

[2] = Observation of adverse reactions in rats during 12 days of continuous administration; assay type: in vivo; details: 150 mg/kg deoxyschizandrin oral
Experimental: as §1, with “refrigerator. […]” for “refrigerator.”

[3] = Stability of the two analytes in rat plasma under different storage conditions; assay type: in vitro ADME; details: n=5
Experimental: To prepare the stock solution, approximately 2.00 mg of Tac, deoxyschizandrin and IS were accurately weighed and dissolved in methanol, respectively. The stock solutions of Tac and deoxyschizandrin with a final concentration of 1.00 mg/mL was obtained, and the IS stock solution was diluted to 100.00 ng/mL using methanol before use. The stock solutions were aliquoted and stored at −80°C. Combined working solutions were prepared by diluting the stock solution using 10% aqueous methanol at the following concentrations: 5.00, 10.00, 20.00, 50.00, 100.00, 200.00, 500.00, 1,000.00, and 2,000.00 ng/mL. Blank rat plasma was used to prepare the calibration standards. Quality-control (QC) samples of two analytes were prepared separately in the same manner at three concentrations, namely, 10 (low concentration), 100 (middle), 1,000 ng/mL (high), and all QC samples were stored at −80°C.
The methodology validation was completed according to FDA guidelines and Chinese Pharmacopoeia (2015 edition), and the linearity, inter- and intra-precision and accuracy, matrix effect and extraction recovery, stability and specificity of this method were validated according to previous study ([Lu et al., 2022]; [Wang et al., 2022]; [Shu et al., 2016]).

[4] = po, 150 mg/kg, NG2201: 150 mg/kg deoxyschizandrin single, D1-D2
[5] = po, 150 mg/kg, NG2202: 150 mg/kg deoxyschizandrin multiple (12 days), D11-D12

For `COc1cc2c(c(OC)c1OC)-c1c(cc(OC)c(OC)c1OC)C[C@H](C)[C@H](C)C2` [deoxyschizandrin], the “increase of C max of deoxyschizandrin after consecutive 12 days of administration” value ([1]; 150 mg/kg, multiple vs single dose, rats) was “about 1.5 fold”, the AUMC0→t ([1]; NG2201: 150 mg/kg deoxyschizandrin single, D1-D2) was 4,088.71 ± 1,056.37 ng. h^2/mL and the AUMC0→t ([1]; NG2202: 150 mg/kg deoxyschizandrin multiple (12 days), D11-D12) was 13,360.23 ± 8,009.79 ng. h^2/mL. It also gave an AUC(0-t) ([1]; oral, 150 mg/kg, NG2201: 150 mg/kg deoxyschizandrin, first day) of 0.786 ± 0.174 µg·h/mL, an AUC(0-t) ([1]; oral, 150 mg/kg, NG2202: after 12 days of continuous administration of 150 mg/kg deoxyschizandrin) of 1.81 ± 0.707 µg·h/mL and an AUC(0-inf) [1, 4] of 0.806 ± 0.176 µg·h/mL. For the same compound, the AUC(0-t) [1, 4] was 0.786 ± 0.174 µg·h/mL, the Cmax [1, 4] was 0.148 ± 0.0232 µg/mL and the MRT [1, 4] was 5.17 ± 0.33 h. The Tmax [1, 4] was 0.92 ± 0.2 h, the half-life [1, 4] was 4.48 ± 0.53 h and the AUC(0-inf) [1, 5] was 2.41 ± 1.72 µg·h/mL. It also gave an AUC(0-t) [1, 5] of 1.81 ± 0.707 µg·h/mL, a Cmax [1, 5] of 0.229 ± 0.0548 µg/mL and an MRT [1, 5] of 6.95 ± 1.42 h. The Tmax [1, 5] was 1.5 ± 1.23 h, the half-life [1, 5] was 9.1 ± 7.83 h and the adverse reactions [2] was “No adverse reactions occurred; also recorded: no adverse effects were demonstrated”. For the same compound, the “Auto-sampler stability (24h, 4℃) Mean ± SD” value ([3]; Nominal Conc. 10 ng/mL) was 10.23±0.93, the “Bench-top stability (8h, RT) Mean ± SD” value ([3]; Nominal Conc. 10 ng/mL) was 10.63±0.83 and the “Frozen-thaw stability (3 times) Mean ± SD” value ([3]; Nominal Conc. 10 ng/mL) was 10.45±1.01. The “Long-term stability (1 month, -80℃) Mean ± SD” value ([3]; Nominal Conc. 10 ng/mL) was 10.37±0.25, the “Auto-sampler stability (24h, 4℃) Mean ± SD” value ([3]; Nominal Conc. 100 ng/mL) was 104.49±5.32 and the “Bench-top stability (8h, RT) Mean ± SD” value ([3]; Nominal Conc. 100 ng/mL) was 102.39±2.82. For the same compound, the “Frozen-thaw stability (3 times) Mean ± SD” value ([3]; Nominal Conc. 100 ng/mL) was 111.56±12.48, the “Long-term stability (1 month, -80℃) Mean ± SD” value ([3]; Nominal Conc. 100 ng/mL) was 101.86±11.38 and the “Auto-sampler stability (24h, 4℃) Mean ± SD” value ([3]; Nominal Conc. 1000 ng/mL) was 1024.65±13.44. The “Bench-top stability (8h, RT) Mean ± SD” value ([3]; Nominal Conc. 1000 ng/mL) was 1014.96±11.94, the “Frozen-thaw stability (3 times) Mean ± SD” value ([3]; Nominal Conc. 1000 ng/mL) was 1050.50±50.54 and the “Long-term stability (1 month, -80℃) Mean ± SD” value ([3]; Nominal Conc. 1000 ng/mL) was 1012.51±45.24.
